Test results published in patent US8835436B2 (priority 2009, dated 2014).
Where a name gives a salt, the structure may show the parent alone.

Target: human recombinant 5-HT2C receptor (Homo sapiens (Human), UniProt P28335)
Conditions: read-out: Binding affinity to serotonin receptor 5-HT2C: IC50
Procedure: Receptor binding affinities of the compounds for serotonin receptors were measured by the method described in the literature [Park W K et al., Pharmacol Biochem Behay.
The binding affinity (IC50) of a compound for the receptor was calculated by computerized nonlinear regression analysis (GraphPad Prism Program, San Diego, USA) using 7-8 varied concentrations of the compound run in duplicate tubes.
Nonspecific binding was determined using 100 uM mianserin. The incubations were performed for 60 min at 27° C., and these were terminated by rapid filtration through filtermate A glass fiber filter presoaked in 0.5% PEI.

Chain of human recombinant 5-HT2C receptor (P28335 whole entry, looked up): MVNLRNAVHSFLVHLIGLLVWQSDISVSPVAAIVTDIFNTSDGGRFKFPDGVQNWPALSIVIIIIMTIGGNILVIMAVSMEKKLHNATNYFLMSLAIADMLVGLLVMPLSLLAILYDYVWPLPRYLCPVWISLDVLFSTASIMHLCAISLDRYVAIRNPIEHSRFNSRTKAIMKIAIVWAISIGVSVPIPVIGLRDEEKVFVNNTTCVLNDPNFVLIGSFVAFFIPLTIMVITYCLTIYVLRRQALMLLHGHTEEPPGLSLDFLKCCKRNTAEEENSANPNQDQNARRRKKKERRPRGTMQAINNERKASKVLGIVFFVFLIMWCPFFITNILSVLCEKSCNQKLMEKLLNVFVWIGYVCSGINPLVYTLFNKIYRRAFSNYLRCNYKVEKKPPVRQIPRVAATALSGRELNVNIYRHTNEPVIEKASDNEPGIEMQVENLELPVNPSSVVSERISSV

Point of comparison: `CCc1c(C(=O)NCCCN2CCN(c3cccc(Cl)c3Cl)CC2)nc(-c2ccc(Cl)cc2Cl)n1-c1ccc(Br)cc1` [Example 89, 1-(4-bromophenyl)-2-(2,4-dichlorophenyl)-N-(3-(4-(2,3-dichlorophenyl)piperazin-1-yl)propyl)-5-ethyl-1H-imidazole-4-carboxamide], IC50 319 nM. Against it:
- Cc1nc(C(=O)NCCCN2CCN(c3cccc(Cl)c3Cl)CC2)c(C)n1-c1ccccc1 [Example 6, N-(3-(4-(2,3-dichlorophenyl)piperazin-1-yl)propyl)-2,5-dimethyl-1-phenyl-1H-imidazole-4-carboxamide] — 26-fold lower, 12.1 nM
- CCCc1nc(C(=O)NCCCN2CCN(c3cccc(Cl)c3Cl)CC2)c(C)n1-c1ccccc1 [Example 7, N-(3-(4-(2,3-dichlorophenyl)piperazin-1-yl)propyl)-5-methyl-1-phenyl-2-propyl-1H-imidazole-4-carboxamide dihydrochloride] — 1.7-fold lower, 189 nM
- CCc1nc(C(=O)NCCN2CCN(c3cccc(Cl)c3Cl)CC2)c(C)n1-c1ccccc1 [Example 13, N-(2-(4-(2,3-dichlorophenyl)piperazin-1-yl)ethyl)-2-ethyl-5-methyl-1-phenyl-1H-imidazole-4-carboxamide] — 5.1-fold lower, 62 nM
- Cc1cccc(N2CCN(CCCNC(=O)c3nc(C)n(CC(C)C)c3C)CC2)c1C [Example 92, N-(3-(4-(2,3-dimethylphenyl)piperazin-1-yl)propyl)-1-isobutyl-2,5-dimethyl-1H-imidazole-4-carboxamide dihydrochloride] — 32-fold higher, 10100 nM
- Cc1cccc(N2CCN(CC(O)CNC(=O)c3nc(C)n(CC(C)C)c3C)CC2)c1C (stereo not shown) [Example 94, N-(3-(4-(2,3-dimethylphenyl)piperazin-1-yl)-2-hydroxypropyl)-1-isobutyl-2,5-dimethyl-1H-imidazole-4-carboxamide dihydrochloride] — 1.9-fold higher, 595 nM
- CCCn1c(C)nc(C(=O)NCC(O)CN2CCN(c3cccc(C)c3C)CC2)c1C (stereo not shown) [Example 96, N-(3-(4-(2,3-dimethylphenyl)piperazin-1-yl)-2-hydroxypropyl)-2,5-dimethyl-1-propyl-1H-imidazole-4-carboxamide dihydrochloride] — higher, > 10000 nM
- COc1ccccc1-n1c(C)nc(C(=O)NCC(O)CN2CCN(c3cccc(C)c3C)CC2)c1C (stereo not shown) [Example 100, N-(3-(4-(2,3-dimethylphenyl)piperazin-1-yl)-2-hydroxypropyl)-1-(2-methoxyphenyl)-2,5-dimethyl-1H-imidazole-4-carboxamide dihydrochloride] — 1.5-fold lower, 207 nM
- CCCc1nc(C(=O)NCC(O)CN2CCN(c3cccc(C)c3C)CC2)cn1-c1ccc(Cl)cc1 (stereo not shown) [Example 111, 1-(4-chlorophenyl)-N-(3-(4-(2,3-dimethylphenyl)piperazin-1-yl)-2-hydroxypropyl)-2-propyl-1H-imidazole-4-carboxamide dihydrochloride] — 2.1-fold higher, 661 nM
- COc1cc(OC)cc(-n2c(C)nc(C(=O)NCCN3CCN(c4cccc(C)c4C)CC3)c2C)c1 [Example 112, 1-(3,5-dimethoxyphenyl)-N-(2-(4-(2,3-dimethylphenyl)piperazin-1-yl)ethyl)-2,5-dimethyl-1H-imidazole-4-carboxamide dihydrochloride] — 5.1-fold lower, 63 nM
- Cc1cccc(N2CCN(CCNC(=O)c3nc(C)n(-c4ccc(F)cc4)c3C)CC2)c1C [Example 114, N-(2-(4-(2,3-dimethylphenyl)piperazin-1-yl)ethyl)-1-(4-fluorophenyl)-2,5-dimethyl-1H-imidazole-4-carboxamide dihydrochloride] — 6.9-fold lower, 46 nM
- Cc1cccc(N2CCN(CCNC(=O)c3nc(C)n(-c4ccc5c(c4)OCO5)c3C)CC2)c1C [Example 115, 1-(benzo[d][1,3]dioxol-5-yl)-N-(2-(4-(2,3-dimethylphenyl)piperazin-1-yl)ethyl)-2,5-dimethyl-1H-imidazole-4-carboxamide dihydrochloride] — 12-fold lower, 27 nM
- CCCc1nc(C(=O)NCCCN2CCN(c3cccc(C)c3C)CC2)cn1-c1ccccc1 [Example 117, N-(3-(4-(2,3-dimethylphenyl)piperazin-1-yl)propyl)-1-phenyl-2-propyl-1H-imidazole-4-carboxamide dihydrochloride] — 3.1-fold lower, 103 nM
- CCCc1nc(C(=O)NCC(O)CN2CCN(c3cccc(C)c3C)CC2)cn1-c1ccccc1 (stereo not shown) [Example 121, N-(3-(4-(2,3-dimethylphenyl)piperazin-1-yl)-2-hydroxypropyl)-1-phenyl-2-propyl-1H-imidazole-4-carboxamide dihydrochloride] — 2-fold higher, 635 nM
- COc1ccc(-n2cc(C(=O)NCCCN3CCN(c4cccc(C)c4C)CC3)nc2-c2ccccc2)cc1 [Example 134, N-(3-(4-(2,3-dimethylphenyl)piperazin-1-yl)propyl)-1-(4-methoxyphenyl)-2-phenyl-1H-imidazole-4-carboxamide dihydrochloride] — 3.2-fold lower, 101 nM
- COc1ccccc1-n1c(C)nc(C(=O)NCCCN2CCN(c3cccc(Cl)c3Cl)CC2)c1C [Example 145, N-(3-(4-(2,3-dichlorophenyl)piperazin-1-yl)propyl)-1-(2-methoxyphenyl)-2,5-dimethyl-1H-imidazole-4-carboxamide dihydrochloride] — 13-fold lower, 25.5 nM
- Cc1ccc(-n2c(C)nc(C(=O)NCCCN3CCN(c4cccc(C)c4C)CC3)c2C)cc1 [Example 147, N-(3-(4-(2,3-dimethylphenyl)piperazin-1-yl)propyl)-2,5-dimethyl-1-p-tolyl-1H-imidazole-4-carboxamide dihydrochloride] — 4.1-fold lower, 78.1 nM
- Cc1ccc(-n2c(C)nc(C(=O)NCC(O)CN3CCN(c4cccc(C)c4C)CC3)c2C)cc1 (stereo not shown) [Example 148, N-(3-(4-(2,3-dimethylphenyl)piperazin-1-yl)-2-hydroxypropyl)-2,5-dimethyl-1-p-tolyl-1H-imidazole-4-carboxamide dihydrochloride] — 2.2-fold higher, 705 nM
- Cc1cccc(N2CCN(CC(O)CNC(=O)c3nc(-c4ccccc4)n(-c4ccccc4)c3C)CC2)c1C (stereo not shown) [Example 155, N-(3-(4-(2,3-dimethylphenyl)piperazin-1-yl)-2-hydroxypropyl)-5-methyl-1,2-diphenyl-1H-imidazole-4-carboxamide dihydrochloride] — 1.6-fold higher, 525 nM
